From article PMC12226413, “Downregulation of O‐GlcNAcylation enhances etoposide‐induced p53‐mediated apoptosis in HepG2 human liver cancer cells” (FEBS Open Bio, 2025)

Columns and labels:
[1] = target: T1, Recombinant human OGT protein (O-GlcNAc transferase) (Homo sapiens, UniProt O15294); assay: UDP-Glo glycosyltransferase assay (luminescence); type: biochemical; details: UDP-GlcNAc and peptide KKKYPGGSTPVSSANMM as substrates; 25 mM Tris pH 7.5, 12.5 mM MgCl2, 0.06 mg/mL BSA, 1 mM DTT; unreliable
T1 construct: recombinant human OGT from R&D Systems
T1 sequence (O15294 2-1046): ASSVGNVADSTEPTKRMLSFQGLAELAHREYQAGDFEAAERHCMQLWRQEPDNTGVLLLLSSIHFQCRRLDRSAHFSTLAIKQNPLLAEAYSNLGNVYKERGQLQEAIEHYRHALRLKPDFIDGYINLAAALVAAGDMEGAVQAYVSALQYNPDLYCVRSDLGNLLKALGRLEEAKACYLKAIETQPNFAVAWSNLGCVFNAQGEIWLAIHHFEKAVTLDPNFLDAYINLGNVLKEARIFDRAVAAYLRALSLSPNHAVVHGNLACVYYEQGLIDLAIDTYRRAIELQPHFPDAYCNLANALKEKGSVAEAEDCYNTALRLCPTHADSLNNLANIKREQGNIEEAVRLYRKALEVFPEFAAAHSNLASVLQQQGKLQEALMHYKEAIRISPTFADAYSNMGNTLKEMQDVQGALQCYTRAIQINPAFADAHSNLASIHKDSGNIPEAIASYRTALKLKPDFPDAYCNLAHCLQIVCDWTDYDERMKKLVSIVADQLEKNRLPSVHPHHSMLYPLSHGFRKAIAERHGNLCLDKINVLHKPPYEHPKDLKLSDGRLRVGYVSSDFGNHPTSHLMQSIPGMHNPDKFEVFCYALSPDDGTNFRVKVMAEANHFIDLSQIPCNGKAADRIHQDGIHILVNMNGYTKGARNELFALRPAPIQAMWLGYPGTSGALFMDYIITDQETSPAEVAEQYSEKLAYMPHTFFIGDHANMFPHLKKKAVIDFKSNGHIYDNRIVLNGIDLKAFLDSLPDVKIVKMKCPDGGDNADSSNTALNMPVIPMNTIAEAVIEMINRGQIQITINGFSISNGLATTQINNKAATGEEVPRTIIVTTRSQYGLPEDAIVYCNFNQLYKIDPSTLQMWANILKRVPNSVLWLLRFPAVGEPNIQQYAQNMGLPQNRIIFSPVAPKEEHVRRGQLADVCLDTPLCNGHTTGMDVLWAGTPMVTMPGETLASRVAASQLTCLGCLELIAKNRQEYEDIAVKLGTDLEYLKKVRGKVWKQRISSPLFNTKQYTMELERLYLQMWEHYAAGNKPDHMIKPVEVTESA

[2] = target: T1, Recombinant human OGT protein (O-GlcNAc transferase); assay: UDP-Glo glycosyltransferase assay (luminescence); type: biochemical

## COc1cc([C@@H]2c3cc4c(cc3[C@@H](O[C@@H]3O[C@@H]5CO[C@@H](C)O[C@H]5[C@H](O)[C@H]3O)[C@H]3COC(=O)[C@H]23)OCO4)cc(OC)c1O [Etoposide]
[1]
  % inhibition at 400 μM: ~ 47.3%

## COc1ccccc1[C@@H](NS(=O)(=O)c1ccc2[nH]c(=O)ccc2c1)C(=O)N(Cc1ccco1)Cc1cccs1 [OSMI-1]
[2]
  IC50: 4.47 µM
